These results are taken from US9561220B2, “Group of alkaloids, the novel autophagic enhancers for treatment of cancers and neurodegenerative conditions thereof” (Macau University of Science and Technology, priority 2014, dated 2017).

pIC50: −log10 of the molar value. Where two headings read alike, the source gives them in different places.

For data set [1], the system named is panel of human cancer cells (HeLa, MCF-7, HepG2, Hep3B, H1299, A549, PC3). Put plainly: cells. In kind it is cell-based. The protocol: The test compounds of liensinine, isoliensinine, dauricine, cepharanthine, hernandezine and thalidezine were dissolved in DMSO at a final concentration of 100 mmol/L and stored at −20° C. Cytotoxicity was assessed using the 3-(4,5-dimethylthiazol-2-yl)-2,5-diphenyltetrazolium bromide assay as described previously. 4000-8000 HeLa (human cervical cancer), MCF-7 (human breast cancer), HepG2 (human liver cancer), Hep3B (human liver cancer), H1299 (human lung cancer), A549 (human lung cancer), PC3 (human prostate cancer) and LO2 (human normal liver) cells were seeded on 96-well plates per well. After overnight pre-incubation, the cells were exposed to different concentrations of liensinine, isoliensinine, dauricine, cepharanthine, hernandezine and thalidezine (0.039-100 μmol/L) for 3 days. Specifically, the following concentrations are used for all of the above alkaloids: […], 0.039 μmol/L. Subsequently, 10 μL of MTT reagents was added to each well and incubated at 37° C. for 4 hours followed by the addition of 100 μL solubilization buffer (10% SDS in 0.01 mol/L HCl) and overnight incubation. Absorbance at 585 nm was determined from each well on the following day. The percentage of cell viability was calculated using the following formula: Cell viability (%)=Cells number treated/Cells number DMSO control×100. Data was obtained from three independent experiments.

Another data set deals with HeLa cancer cells. Briefly: Quantification of autophagy GFP-LC3 puncta in HeLa cells. Type of data set: cell-based, human. The note with it: 20 μM liensinine or 10 μM others, 4 hours, compared to DMSO control (FIG. 2a). The protocol:
GFP-LC3 puncta formation was quantified as previously described. In brief, GFP-LC3 transfected cells grown on coverslips in a 6-well plate were treated with or without 20 μM of […], 10 μM of isoliensinine, dauricine, cepharanthine, hernandezine or thalidezine for 4 hours, the cells were then fixed in 4% paraformaldehyde for 20 minutes at room temperature and then rinsed with PBS. Slides were mounted with FluorSaveTM mounting media (Calbiochem, San Diego, Calif.) and examined by fluorescence microscopy. The number of GFP-positive cells with GFP-LC3 puncta formation was examined under the Nikon ECLIPSE 80i microscope. Representative images were captured with CCD digital camera Spot RT3TM (Diagnostic Instruments, Inc., Melville, N.Y.). To quantify for autophagy, the percentage of cells with punctate GFP-LC3 fluorescence was calculated by counting the number of the cells with punctate GFP-LC3 fluorescence in GFP-positive cells. A minimum of 150 cells from 3 randomly selected fields was scored.

For data set [2], the system named is HeLa cells expressing GFP-LC3. Briefly: GFP-LC3 puncta quantification in the presence of autophagic inhibitor 3-MA. In kind it is cell-based, human. The note with it: 20 μM liensinine or 10 μM others, 3-MA 5 mM, 4 hours (FIG. 3). The procedure:
GFP-LC3 puncta formation was quantified as previously described. In brief, HeLa cells expressing GFP-LC3 were treated with 20 μM of […], or 10 μM of isoliensinine, dauricine, cepharanthine, hernandezine or thalidezine in the presence of autophagic inhibitor, 3-methyl adenine (3-MA, 5 mM), for 4 hours. The cells were then fixed in 4% paraformaldehyde for 20 minutes at room temperature and then rinsed with PBS. Slides were mounted with FluorSaveTM mounting media (Calbiochem) and examined by fluorescence microscopy. To quantify for autophagy, the percentage of cells with punctate GFP-LC3 fluorescence was calculated by counting the number of the cells with punctate GFP-LC3 fluorescence in GFP-positive cells. A minimum of 150 cells from 3 randomly selected fields were scored.

The subject of a further data set is AMPK. Briefly: Detection of mTOR signaling marker proteins: AMPK phosphorylation (Western blot). Type of data set: cell-based, human. The note with it: HeLa cells, 20 μM liensinine or 10 μM others, compared to DMSO control (FIG. 5a). The protocol:
HeLa cells treated with 20 μM of […], 10 μM of isoliensinine, 10 μM of dauricine, 10 μM of cepharanthine, 10 μM of hernandezine and 10 μM of thalidezine were harvested and lysed in RIPA buffer (Cell Signaling). The cell lysates were then resolved by SDS-PAGE. After electrophoresis, the proteins from SDS-PAGE were transferred to nitrocellulose membrane which was then blocked with 5% non-fat dried milk for 60 minutes. The membrane was then incubated with P-p70S6K, p70S6K, P-AMPK, AMPK and actin primary antibodies (1:1000) in TBST overnight at 4° C. respectively. After that, the membrane was further incubated with HRP-conjugated secondary antibodies for 60 minutes. Finally, protein bands were visualized by using the ECL Western Blotting Detection Reagents (Invitrogen).
Background: A western blot detects proteins with antibodies after separation by electrophoresis.

Data set [3] concerns HeLa cells expressing GFP-LC3. Briefly: GFP-LC3 puncta quantification in the presence of AMPK inhibitor compound C. Type of data set: cell-based, human. The note with it: compound C 5 μM, 24 hours (FIG. 5b). The procedure: GFP-LC3 puncta formation was quantified as previously described. In brief, HeLa cells expressing GFP-LC3 were treated with indicated concentrations of […], isoliensinine, dauricine, cepharanthine, hernandezine and thalidezine in the presence of AMPK inhibitor, compound C (CC, 5 μM), for 24 hours. The cells were then fixed in 4% paraformaldehyde for 20 minutes at room temperature and then rinsed with PBS. Slides were mounted with FluorSaveTM mounting media (Calbiochem) and examined by fluorescence microscopy. To quantify for autophagy, the percentage of cells with punctate GFP-LC3 fluorescence was calculated by counting the number of the cells with punctate GFP-LC3 fluorescence in GFP-positive cells. A minimum of 150 cells from 3 randomly selected fields were scored.

Data set [4] relates to mutant huntingtin aggregate (HDQ55). Briefly: Mutant huntingtin aggregate by fluorescence imaging. Type of data set: cell-based. The note with it: PC 12 cells, fluorescence imaging (FIG. 8c). The procedure: PC 12 cells were transfected transiently with EGFP-HDQ55/74 plasmids for 24 h using Lipofectamine Plus LTX reagent (Invitrogen) according to the manufacturer's protocol. The transfected cells were then treated with […], isoliensinine, dauricine, cepharanthine, hernandezine and thalidezine for 24 h. The removal of mutant huntingtin, ([…]74) was then quantitated by immunoblotting with antibody against EGFP or by immunocytochemistry under fluorescence microscopy.

The test system of data set [5] is autophagy deficient cells (Atg7−/− or Atg7-ko) MEFs. Briefly: Annexin V / propidium iodide flow cytometry in Atg7 wild-type and deficient MEFs. In kind it is cell-based, mouse. The procedure: Cell viability was measured using an annexin V staining kit (BD Biosciences, San Jose, Calif., USA). Briefly, Atg7 wild-type (Atg7+/+ or Atg7-wt) and Atg7 deficient (Atg7−/− or Atg7-ko) mouse embryonic fibroblasts (MEFs) were treated with the selected alkaloids for 24 h. Cells were then harvested and analysed by multiparametric flow cytometry using FITC-Annexin V and Propidium iodide staining (BD Biosciences, San Jose, Calif., USA) according to the manufacturer's instructions. Flow cytometry was then carried out using a FACSCalibur flow cytometer (BD Biosciences, San Jose, Calif., USA). Data acquisition and analysis was performed with CellQuest (BD Biosciences, San Jose, Calif., USA). Data were obtained from three independent experiments.

Where [6] appears, read: Homo sapiens, 72 h, read-out: mean IC50 value (cell cytotoxicity).
Where [7] appears, read: MEFs, 24 h, annexin V/PI flow cytometry (FIGS. 6a to 6c).

Take `COc1ccc2cc1Oc1ccc(cc1)C[C@H]1c3cc(c(OC)cc3CCN1C)Oc1c(OC)c(OC)c(OC)c3c1[C@H](C2)N(C)CC3` [hernandezine]: the pIC50 (usually −log10 of the IC50, conventionally taken in molar units) in data set [1] (setting [6]) is 4.21 to 5.34. Also, the GFP-LC3 puncta formation result in the data set on HeLa cancer cells is recorded as “significantly induced”. Also, the “compound-induced GFP-LC3 puncta formation in the presence of autophagic inhibitor (3-MA)” value in data set [2] is “significant reduction”. For the same compound, in the data set with AMPK, the “phosphorylation of AMPK” value is reported as “activate”. Besides, in data set [3], the “compound-induced GFP-LC3 puncta formation in the presence of AMPK inhibitor (Compound C)” value is given as “significant reduction”. In data set [4], the “formed mutant huntingtin aggregate (HDQ55)” value was “significantly reduced”.

Turning to `COc1cc2c(cc1OC)[C@@H](Cc1ccc(Oc3cc(C[C@@H]4c5cc(OC)c(OC)cc5CCN4C)ccc3O)cc1)N(C)CC2` [dauricine], the pIC50 in data set [1] (setting [6]) was 4.21 to 5.34. Further, the GFP-LC3 puncta formation entry with HeLa cancer cells is given as “significantly induced”. In addition, in data set [2], the “compound-induced GFP-LC3 puncta formation in the presence of autophagic inhibitor (3-MA)” value is recorded as “significant reduction”. Besides, the “phosphorylation of AMPK” value in the data set on AMPK is “activate”. In addition, in data set [3], the “compound-induced GFP-LC3 puncta formation in the presence of AMPK inhibitor (Compound C)” value is “significant reduction”. In addition, the “cytotoxic effect to autophagy deficient cells (Atg7−/−) versus Atg7 wild-type” value in data set [5] (setting [7]) is recorded as “less cytotoxicity”. Also, the “formed mutant huntingtin aggregate (HDQ55)” value in data set [4] is given as “significantly reduced”.

Regarding thalidezine, the pIC50 in data set [1] was 4.21 to 5.34. In the data set with HeLa cancer cells, the GFP-LC3 puncta formation result was “significantly induced”. Moreover, in data set [2], the “compound-induced GFP-LC3 puncta formation in the presence of autophagic inhibitor (3-MA)” value was “significant reduction”. Besides, in the data set with AMPK, the “phosphorylation of AMPK” value is given as “activate”. In addition, in data set [3], the “compound-induced GFP-LC3 puncta formation in the presence of AMPK inhibitor (Compound C)” value is “significant reduction”. In addition, the “cytotoxic effect to autophagy deficient cells (Atg7−/−) versus Atg7 wild-type” value in data set [5] is on record as “less cytotoxicity”. The “formed mutant huntingtin aggregate (HDQ55)” value in data set [4] is recorded as “significantly reduced”.

On to `COc1ccc(C[C@@H]2c3cc(Oc4cc(C[C@@H]5c6cc(O)c(OC)cc6CCN5C)ccc4O)c(OC)cc3CCN2C)cc1` [isoliensinine], for which, in data set [1] (setting [6]), the pIC50 was 4.21 to 5.34. The GFP-LC3 puncta formation result in the data set with HeLa cancer cells was “significantly induced”. Besides, the “compound-induced GFP-LC3 puncta formation in the presence of autophagic inhibitor (3-MA)” value in data set [2] is “significant reduction”. In addition, in the data set on AMPK, the “phosphorylation of AMPK” value is given as “activate”. The “compound-induced GFP-LC3 puncta formation in the presence of AMPK inhibitor (Compound C)” value in data set [3] is “significant reduction”. The “cytotoxic effect to autophagy deficient cells (Atg7−/−) versus Atg7 wild-type” value in data set [5] (setting [7]) was “less cytotoxicity”. In data set [4], the “formed mutant huntingtin aggregate (HDQ55)” value was “significantly reduced”.

Take `COc1cc2c(cc1OC)[C@@H](Cc1ccc(O)c(Oc3cc4c(cc3OC)CCN(C)[C@@H]4Cc3ccc(O)cc3)c1)N(C)CC2` [liensinine]: the pIC50 in data set [1] is 4.21 to 5.34. In the data set with HeLa cancer cells, the GFP-LC3 puncta formation entry was “significantly induced”. Further, the “compound-induced GFP-LC3 puncta formation in the presence of autophagic inhibitor (3-MA)” value in data set [2] is listed as “significant reduction”. The “phosphorylation of AMPK” value in the data set on AMPK was “activate”. In addition, the “compound-induced GFP-LC3 puncta formation in the presence of AMPK inhibitor (Compound C)” value in data set [3] is on record as “significant reduction”. Also, the “cytotoxic effect to autophagy deficient cells (Atg7−/−) versus Atg7 wild-type” value in data set [5] (setting [7]) is reported as “less cytotoxicity”. For the same compound, in data set [4], the “formed mutant huntingtin aggregate (HDQ55)” value is given as “significantly reduced”.
